The test has as its target EGFR WT (Homo sapiens (Human), UniProt P00533). As to the kind of experiment: ErbB enzyme assay (CisBio HTRF-KinEASE-TK), EGFR WT. In kind it is biochemical. The note with it: ATP at Km (25 μM), 1 h incubation. In a few lines: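 HTRF KinEASE-TK kinase assay, 1 h at ambient temperature with three-fold serial compound dilutions, then 1 h detection with Sa-XL665/TK-Ab-Cryptate. IC50 is the 50 POC point of a 4-parameter logistic fit.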

What is called IC50 is the concentration needed to halve the response being measured. A low value points to inhibition by little substance.

The structures appear in SMILES notation. Where a name gives a salt, the structure may show the parent alone.

EGFR WT, sequence (P00533 25-1210): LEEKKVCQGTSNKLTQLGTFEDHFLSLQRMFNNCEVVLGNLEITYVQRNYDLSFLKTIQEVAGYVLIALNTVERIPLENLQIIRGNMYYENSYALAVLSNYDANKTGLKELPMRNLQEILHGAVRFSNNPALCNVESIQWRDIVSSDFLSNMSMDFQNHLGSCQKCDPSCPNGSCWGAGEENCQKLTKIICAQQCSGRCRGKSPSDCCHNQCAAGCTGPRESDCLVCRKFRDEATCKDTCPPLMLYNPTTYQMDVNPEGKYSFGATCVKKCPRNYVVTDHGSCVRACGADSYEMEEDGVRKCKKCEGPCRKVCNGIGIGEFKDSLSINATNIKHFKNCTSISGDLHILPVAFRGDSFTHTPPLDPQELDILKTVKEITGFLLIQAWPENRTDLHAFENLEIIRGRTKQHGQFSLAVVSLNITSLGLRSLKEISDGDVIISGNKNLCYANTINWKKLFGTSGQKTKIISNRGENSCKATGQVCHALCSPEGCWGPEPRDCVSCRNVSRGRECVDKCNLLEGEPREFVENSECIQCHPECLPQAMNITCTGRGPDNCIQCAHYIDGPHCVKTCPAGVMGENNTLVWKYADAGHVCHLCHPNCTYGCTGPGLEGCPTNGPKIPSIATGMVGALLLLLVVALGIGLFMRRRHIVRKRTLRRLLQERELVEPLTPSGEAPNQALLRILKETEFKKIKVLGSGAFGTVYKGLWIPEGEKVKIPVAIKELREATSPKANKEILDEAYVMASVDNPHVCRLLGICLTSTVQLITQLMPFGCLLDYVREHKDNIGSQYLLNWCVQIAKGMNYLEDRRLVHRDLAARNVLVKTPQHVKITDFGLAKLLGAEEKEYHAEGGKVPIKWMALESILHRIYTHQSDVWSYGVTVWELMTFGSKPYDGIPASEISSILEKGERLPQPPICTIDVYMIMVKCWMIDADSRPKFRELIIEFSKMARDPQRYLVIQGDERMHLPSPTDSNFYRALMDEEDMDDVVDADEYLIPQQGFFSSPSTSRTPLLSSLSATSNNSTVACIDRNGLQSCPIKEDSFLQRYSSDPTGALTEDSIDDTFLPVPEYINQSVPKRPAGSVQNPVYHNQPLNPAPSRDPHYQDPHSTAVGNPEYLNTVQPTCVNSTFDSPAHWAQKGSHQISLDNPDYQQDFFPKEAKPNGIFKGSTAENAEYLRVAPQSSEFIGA

As for `Cc1cc(Nc2ncnc3ccc(N4CCN(C(=O)/C=C/C(F)F)[C@@H](C)C4)nc23)ccc1Oc1ccc2c(c1)nnn2C` [Compound 369, (S,E)-4,4-difluoro-1-(2-methyl-4-(4-((3-methyl-4-((1-methyl-1H-benzo[d][1,2,3]triazol-5-yl)oxy)phenyl)amino)pyrido[3,2-d]pyrimidin-6-yl)piperazin-1-yl)but-2-en-1-one], the IC50 is 100 to 500 nM.

Compound `C=CC(=O)N[C@@]1(C)CCCN(c2ncc3ncnc(Nc4ccc(Oc5ccc6c(c5)nnn6C)c(C)c4)c3n2)C1` [Compound 146, (S)-N-(3-methyl-1-(8-((3-methyl-4-((1-methyl-1H-benzo[d][1,2,3]triazol-5-yl)oxy)phenyl)amino)pyrimido[5,4-d]pyrimidin-2-yl)piperidin-3-yl)acrylamide] returned a concentration for half-maximal inhibition (IC50) of 500 to 1000 nM.

`C=C(F)C(=O)N1C2C=C(c3ccc4ncnc(Nc5ccc(Oc6ccc7c(c6)nnn7C)c(C)c5)c4n3)CC1COC2` (stereo not shown) [Compound 410, 2-fluoro-1-(7-(4-((3-methyl-4-((1-methyl-1H-benzo[d][1,2,3]triazol-5-yl)oxy)phenyl)amino)pyrido[3,2-d]pyrimidin-6-yl)-3-oxa-9-azabicyclo[3.3.1]non-6-en-9-yl)prop-2-en-1-one trifluoroacetate]: the half-inhibitory concentration (IC50) was at least 1000 nM.

As for `C=CC(=O)N[C@H]1CN(c2ccc3ncnc(Nc4ccc(Oc5ccc6c(c5)nnn6C)c(C)c4)c3n2)C[C@@H]1F` [Compound 276, N-((3S,4S)-4-fluoro-1-(4-((3-methyl-4-((1-methyl-1H-benzo[d][1,2,3]triazol-5-yl)oxy)phenyl)amino)pyrido[3,2-d]pyrimidin-6-yl)pyrrolidin-3-yl)acrylamide], the IC50 is 100 to 500 nM.

In turn, `C=CC(=O)N1CCC(Oc2ncc3ncnc(Nc4ccc(Oc5ccc6c(c5)ncn6C)c(C)c4)c3n2)CC1` [Compound 378, 1-(4-((8-((3-methyl-4-((1-methyl-1H-benzo[d]imidazol-5-yl)oxy)phenyl)amino)pyrimido[5,4-d]pyrimidin-2-yl)oxy)piperidin-1-yl)prop-2-en-1-one] registered an IC50 of 50 to 100 nM.

Compound `Cc1cc(Nc2ncnc3cnc(N4CCN(C(=O)/C=C/Cn5cccn5)CC4)nc23)ccc1Oc1ccc2c(c1)nnn2C` [Compound 233, (E)-1-(4-(8-((3-methyl-4-((1-methyl-1H-benzo[d][1,2,3]triazol-5-yl)oxy)phenyl)amino)pyrimido[5,4-d]pyrimidin-2-yl)piperazin-1-yl)-4-(1H-pyrazol-1-yl)but-2-en-1-one] registered an IC50 of at least 1000 nM.

Regarding `C=CC(=O)N1CCN(c2ncc3ncnc(Nc4cc(C)c(Oc5cc(F)c6c(c5)ncn6C)cc4OC)c3n2)C[C@H]1C` [Compound 41, (R)-1-(4-(8-((4-((7-fluoro-1-methyl-1H-benzo[d]imidazol-5-yl)oxy)-2-methoxy-5-methylphenyl)amino)pyrimido[5,4-d]pyrimidin-2-y1)-2-methylpiperazin-1-y1)prop-2-en-1-one], the IC50 lay within 100 to 500 nM.

Take `C=CC(=O)N1CCN(c2ncc3ncnc(Nc4ccc(Oc5cc(F)c6c(c5)nnn6C)c(C)c4)c3n2)C[C@H]1C` [Compound 171, (R)-1-(4-(8-((4-((7-fluoro-1-methyl-1H-benzo[d][1,2,3]triazol-5-yl)oxy)-3-methylphenyl)amino)pyrimido[5,4-d]pyrimidin-2-y1)-2-methylpiperazin-1-yl)prop-2-en-1-one]: the IC50 was in the range of 50 to 100 nM.

`C=CC(=O)N[C@H]1CN(c2ccc3ncnc(Nc4ccc(Oc5ccc6c(c5)nnn6C)c(C)c4)c3n2)C[C@H]1F` [Compound 277, N-((3S,4R)-4-fluoro-1-(4-((3-methyl-4-((1-methyl-1H-benzo[d][1,2,3]triazol-5-yl)oxy)phenyl)amino)pyrido[3,2-d]pyrimidin-6-yl)pyrrolidin-3-yl)acrylamide] returned a 50% inhibitory concentration (IC50) of 100 to 500 nM.

Take `COC[C@@H]1CN(c2ccc3ncnc(Nc4ccc(Oc5ccc6c(c5)nnn6C)c(C)c4F)c3n2)CCN1C(=O)/C=C/CF` [Compound 361, (S,E)-4-fluoro-1-(4-(4-((2-fluoro-3-methyl-4-((1-methyl-1H-benzo[d][1,2,3]triazol-5-yl)oxy)phenyl)amino)pyrido[3,2-d]pyrimidin-6-yl)-2-(methoxymethyl)piperazin-1-yl)but-2-en-1-one]: the IC50 lay within 50 to 100 nM.

In turn, `C=CC(=O)N[C@H]1C[C@H](C)CN(c2ccc3ncnc(Nc4ccc(Oc5ccc6c(c5)nnn6C)c(C)c4F)c3n2)C1` (single isomer, unassigned) [Compound 339] returned a half-inhibitory concentration (IC50) of 100 to 500 nM.

`C=CC(=O)N[C@@H]1CCCN(c2ncc3ncnc(Nc4ccc(Oc5ccc6c(c5)nnn6C)c(C)c4F)c3n2)CC1` [Compound 172, (R)-N-(1-(8-((2-fluoro-3-methyl-4-((1-methyl-1H-benzo[d][1,2,3]triazol-5-yl)oxy)phenyl)amino)pyrimido[5,4-d]pyrimidin-2-yl)azepan-4-yl)acrylamide] yielded an IC50 of at least 1000 nM.

In turn, `C=CC(=O)N1CCN(c2ncc3ncnc(Nc4ccc(Oc5ccc6c(c5)nnn6C)c(C)c4)c3n2)C[C@@H]1CF` (single isomer, unassigned) [Compound 199] gave an IC50 of under 50 nM.

As for `C=CC(=O)N1CCN(c2ncc3ncnc(Nc4ccc(Oc5cc6nnn(C)c6c(C)c5F)c(C)c4)c3n2)C[C@H]1C` [Compound 236, (R)-1-(4-(8-((4-((6-fluoro-1,7-dimethyl-1H-benzo[d][1,2,3]triazol-5-yl)oxy)-3-methylphenyl)amino)pyrimido[5,4-d]pyrimidin-2-yl)-2-methylpiperazin-1-yl)prop-2-en-1-one], the IC50 fell in the range of 100 to 500 nM.

`C=CC(=O)N[C@@H]1C[C@@H](C)CN(c2ccc3ncnc(Nc4ccc(Oc5ccc6c(c5)nnn6C)c(C)c4F)c3n2)C1` (single isomer, unassigned) [Compound 338] came in with an IC50 of 100 to 500 nM.

Compound `C=C(F)C(=O)N1CC2CCC1CN2c1ccc2ncnc(Nc3ccc(Oc4ccc5c(c4)nnn5C)c(C)c3)c2n1` (stereo not shown) [Compound 88, 2-fluoro-1-(5-(4-((3-methyl-4-((1-methyl-1H-benzo[d][1,2,3]triazol-5-yl)oxy)phenyl)amino)pyrido[3,2-d]pyrimidin-6-yl)-2,5-diazabicyclo[2.2.2]octan-2-yl)prop-2-en-1-one] came in with an IC50 of at least 1000 nM.

As to `C=CC(=O)N1CCN(c2ncc3ncnc(Nc4ccc(Oc5cc6nnn(C)c6cc5F)c(C)c4)c3n2)CC1` [Compound 190, 1-(4-(8-((4-((6-fluoro-1-methyl-1H-benzo[d][1,2,3]triazol-5-yl)oxy)-3-methylphenyl)amino)pyrimido[5,4-d]pyrimidin-2-yl)piperazin-1-yl)prop-2-en-1-one], the concentration for half-maximal inhibition (IC50) fell in the range of 100 to 500 nM.

For the compound `C=CC(=O)N1CCN(c2ncc3ncnc(Nc4ccc(Oc5ccc6c(c5)nnn6C)c(C)c4)c3n2)C[C@@H]1C(C)C` [Compound 122, (S)-1-(2-isopropyl-4-(8-((3-methyl-4-((1-methyl-1H-benzo[d][1,2,3]triazol-5-yl)oxy)phenyl)amino)pyrimido[5,4-d]pyrimidin-2-yl)piperazin-1-y1)prop-2-en-1-one], the concentration for half-maximal inhibition (IC50) is at least 1000 nM.

Turning to `C=CC(=O)N1CCN(c2ncc3ncnc(Nc4ccc(Oc5ccc6c(c5)nnn6C)cc4Cl)c3n2)CC1` [Compound 29, 1-(4-(8-((2-chloro-4-((1-methyl-1H-benzo[d][1,2,3]triazol-5-yl)oxy)phenyl)amino)pyrimido[5,4-d]pyrimidin-2-yl)piperazin-1-yl)prop-2-en-1-one], the concentration for half-maximal inhibition (IC50) is at least 1000 nM.

Source of the values: patent publication US20250129078A1, “ERBB2 INHIBITORS” (Cogent Biosciences, Inc., priority 2023, published 2025).
